Earlier results in patent US20030027804A1, “Therapeutic combinations for the treatment of hormone deficiencies” (priority 2001, published 2003).

Tests used:
[1] = oral, sublingual or buccal 17-alkylated androgens
[2] = oral
[3] = target: sex hormone binding globulin (SHBG), albumin (Homo sapiens, UniProt P02768); conditions: in men
[4] = target: T1, sex hormone binding globulin (SHBG), albumin (Homo sapiens, UniProt P04278); conditions: in men
T1 sequence (P04278 30-402): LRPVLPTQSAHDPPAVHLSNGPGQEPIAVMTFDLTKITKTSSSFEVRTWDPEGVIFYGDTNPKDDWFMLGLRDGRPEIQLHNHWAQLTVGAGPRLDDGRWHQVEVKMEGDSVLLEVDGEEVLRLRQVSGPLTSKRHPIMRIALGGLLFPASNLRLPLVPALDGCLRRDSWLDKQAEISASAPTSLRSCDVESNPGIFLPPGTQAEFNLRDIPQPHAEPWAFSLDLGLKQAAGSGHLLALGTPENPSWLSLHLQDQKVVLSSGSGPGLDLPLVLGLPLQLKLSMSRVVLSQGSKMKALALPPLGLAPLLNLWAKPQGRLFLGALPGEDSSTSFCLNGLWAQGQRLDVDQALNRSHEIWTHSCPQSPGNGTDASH

[5] = system: sex hormone binding globulin (SHBG), albumin; conditions: circulating in the blood
[6] = in vivo

Chain of sex hormone binding globulin (SHBG), albumin (Homo sapiens, UniProt P02768) (P02768 25-609): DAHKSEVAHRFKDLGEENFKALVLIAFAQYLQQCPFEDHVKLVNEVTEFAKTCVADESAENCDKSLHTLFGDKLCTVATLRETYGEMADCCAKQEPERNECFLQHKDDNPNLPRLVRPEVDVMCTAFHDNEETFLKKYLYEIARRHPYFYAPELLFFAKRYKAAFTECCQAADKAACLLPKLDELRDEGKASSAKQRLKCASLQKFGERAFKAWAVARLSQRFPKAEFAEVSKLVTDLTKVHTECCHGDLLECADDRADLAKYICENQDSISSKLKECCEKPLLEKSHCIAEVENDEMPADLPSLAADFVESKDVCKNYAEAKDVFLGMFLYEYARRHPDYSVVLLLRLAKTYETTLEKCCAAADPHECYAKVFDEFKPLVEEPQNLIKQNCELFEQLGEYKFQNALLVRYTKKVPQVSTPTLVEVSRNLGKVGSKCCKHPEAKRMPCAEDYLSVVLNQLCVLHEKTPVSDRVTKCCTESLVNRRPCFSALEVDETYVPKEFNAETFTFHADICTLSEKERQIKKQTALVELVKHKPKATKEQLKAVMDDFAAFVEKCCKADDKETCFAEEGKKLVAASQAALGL

**Q.** With `C[C@]12CCC(=O)C=C1CC[C@@H]1[C@@H]2CC[C@@]2(C)[C@H]1CC[C@]2(C)O` [methyl testosterone, 17 alpha-methyl-testosterone] as the compound, how does the liver toxicity [1] read?
**A.** Its liver toxicity is “associated with liver toxicity”.

**Q.** For `C[C@]1(O)CC[C@H]2[C@@H]3CCC4=CC(=O)CC[C@]4(C)[C@@]3(F)[C@@H](O)C[C@@]21C` [fluoxymesterone], which liver toxicity [1] is on record?
**A.** The liver toxicity was “associated with liver toxicity”.

**Q.** With `C[C@]12CC[C@H]3[C@@H](CCC4=CC(=O)CC[C@@]43C)[C@@H]1CC[C@@H]2O` [testosterone] as the compound, how does the “orally administered testosterone cleared by the liver in the first pass” value [2] read?
**A.** The value was “about 44%”.

**Q.** And the “share bound weakly to albumin” value [3]?
**A.** The value was 60%.

**Q.** And the “share of binding to high-affinity SHBG” value [4]?
**A.** The value was “approximately 40%”.

**Q.** And the “testosterone in blood bound to protein” value [5]?
**A.** Its value is 98%.

**Q.** For `C[C@]12CC[C@@H]3c4ccc(O)cc4CC[C@H]3[C@@H]1CC[C@@H]2O` [estradiol, 1,3,5(10)-Estratriene-3,17 beta-diol], which “serum levels of estradiol required for clinical efficacy” value [6] is on record?
**A.** The value was 40 to 60 pg/mL.
